Experimental findings from US10221138B2, “Biaryl derivatives as GPR120 agonists” (LG CHEM, LTD., priority 2013, dated 2019) are described below.

Molecules are shown by their SMILES.

The target in the assay is T1, hGPR120 (Homo sapiens, UniProt Q5NUL3).
T1 construct: expressed in transfected cells; host or cells: CHO-K1
T1 sequence (Q5NUL3 1-361): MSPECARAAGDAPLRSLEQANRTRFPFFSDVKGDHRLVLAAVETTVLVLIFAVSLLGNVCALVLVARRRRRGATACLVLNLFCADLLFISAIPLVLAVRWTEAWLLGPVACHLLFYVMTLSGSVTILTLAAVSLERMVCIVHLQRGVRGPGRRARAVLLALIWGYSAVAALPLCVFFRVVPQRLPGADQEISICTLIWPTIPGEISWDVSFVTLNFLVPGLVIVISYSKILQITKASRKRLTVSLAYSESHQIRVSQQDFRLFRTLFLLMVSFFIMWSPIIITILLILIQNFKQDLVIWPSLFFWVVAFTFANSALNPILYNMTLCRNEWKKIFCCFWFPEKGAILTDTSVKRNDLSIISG
Description: Measurement of activity of GPR120 agonist (cell-based calcium fluorescence assay). The settings on record: CHO-K1 cells expressing Ga16 and hGPR120, Calcium 5 dye fluorescence; activity class; read-out: EC50. An outline of the steps:
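CHO-K1 cells co-expressing Gα16 and hGPR120, plated 18 h, loaded with Calcium 5 dye for 1 h at 37 °C, then given serially diluted agonists (final 0.5% DMSO). Fluorescence increase expressed as relative % of the 1% DMSO-only signal.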
A word on the EC50: it is the concentration giving half of the maximal effect. As to `O=C(O)CCCSc1ccc(-c2cc(F)ccc2OC2CCCC2)cc1F` [Example 180, 4-(2′-cyclopentyloxy-3,5′-difluoro-biphenyl-4-ylsulfanyl)-butyric acid], the EC50 was 0.2 to 2 µM.

In the case of `Cc1cnc(OC2CCCC2)c(-c2ccc(SCCCC(=O)O)cc2)c1` [Example 181, 4-[4-(2-cyclopentyloxy-5-methyl-pyridin-3-yl)-phenylsulfanyl]-butyric acid], the EC50 was in the range of 0.2 to 2 µM.

In the case of `COc1ccc(-c2ccc(SCCCC(=O)O)c(F)c2)c(OC2CCCC2)c1` [Example 183, 4-(2′-cyclopentyloxy-3-fluoro-4′-methoxy-biphenyl-4-ylsulfanyl)-butyric acid], the EC50 was in the range of 0.2 to 2 µM.

With `COc1ccc(-c2cc(F)c(SCCCC(=O)O)c(F)c2)c(OC2CCCC2)c1` [Example 184, 4-(2′-cyclopentyloxy-3,5-difluoro-4′-methoxy-biphenyl-4-ylsulfanyl)-butyric acid], the EC50 lay in the range of 0.2 to 2 µM.

As for `COc1ccc(-c2ccc(SCCCC(=O)O)c(F)c2)c(OC(C)C)c1` [Example 185, 4-(3-fluoro-2′-isopropoxy-4′-methoxy-biphenyl-4-ylsulfanyl)-butyric acid], the EC50 is below 0.2 µM.

Take `Cc1cnc(OC2CCCC2)c(-c2ccc(SCCCC(=O)O)c(F)c2)c1` [Example 186, 4-[4-(2-cyclopentyloxy-5-methyl-pyridin-3-yl)-2-fluoro-phenylsulfanyl]-butyric acid]: the EC50 was below 0.2 µM.

On to `Cc1cnc(OC(C)C)c(-c2ccc(SCCCC(=O)O)c(F)c2)c1` [Example 187, 4-[2-fluoro-4-(2-isopropoxy-5-methyl-pyridin-3-yl)-phenylsulfanyl]-butyric acid], for which the EC50 was below 0.2 µM.

As to `CC(C)Oc1ccc(F)cc1-c1ccc(SCCCC(=O)O)c(F)c1` [Example 188, 4-(3,5′-difluoro-2′-isopropoxy-biphenyl-4-ylsulfanyl)-butyric acid], the 50% effective concentration (EC50) is below 0.2 µM.

Consider `Cc1ccc(-c2ccc(SCCCC(=O)O)c(F)c2)c(OC2CCCC2)n1` [Example 189, 4-[4-(2-cyclopentyloxy-6-methyl-pyridin-3-yl)-2-fluoro-phenylsulfanyl]-butyric acid], for which the EC50 lay in the range of 0.2 to 2 µM.

As to `Cc1cc(F)c(OC(C)C)c(-c2ccc(SCCCC(=O)O)c(F)c2)c1` [Example 190, 4-(3,3′-difluoro-2′-isopropoxy-5′-methyl-biphenyl-4-ylsulfanyl)-butyric acid], the EC50 is below 0.2 µM.

`CCCOc1c(F)cc(C)cc1-c1ccc(SCCCC(=O)O)c(F)c1` [Example 191, 4-(3,3′-difluoro-5′-methyl-2′-propoxy-biphenyl-4-ylsulfanyl)-butyric acid]: the 50% effective concentration (EC50) is below 0.2 µM.

As for `CCCOc1ccc(-c2ccc(SCCCC(=O)O)c(F)c2)c(OCCC)c1` [Example 192, 4-(3-fluoro-2′,4′-dipropoxy-biphenyl-4-ylsulfanyl)-butyric acid], the half-maximal effective concentration (EC50) lay in the range of 2 to 20 µM.

Regarding `Cc1ccc(OC2CCCC2)c(-c2ccc(SCCCC(=O)O)c(F)c2)c1F` [Example 193, 4-(6′-cyclopentyloxy-3,2′-difluoro-3′-methyl-biphenyl-4-ylsulfanyl)-butyric acid], the half-maximal effective concentration (EC50) was 0.2 to 2 µM.

On to `O=C(O)CCCSc1ccc(-c2cccc(F)c2OC2CCCC2)cc1F` [Example 194, 4-(2′-cyclopentyloxy-3,3′-difluoro-biphenyl-4-ylsulfanyl)-butyric acid], for which the EC50 was above 20 µM.

For the compound `Cc1cc(F)c(OC2CCCC2)c(-c2ccc(SCCCC(=O)O)c(F)c2)c1` [Example 195, 4-(2′-cyclopentyloxy-3,3′-difluoro-5′-methyl-biphenyl-4-ylsulfanyl)-butyric acid], the EC50 lay within 0.2 to 2 µM.

On to `O=C(O)CCCCOc1c(F)cc(-c2cccnc2OCC2CCC2)cc1F` [Example 196, 5-[4-(2-cyclobutylmethoxy-pyridin-3-yl)-2,6-difluoro-phenoxy]-pentanoic acid], for which the EC50 was below 0.2 µM.

On to `O=C(O)CCCCOc1c(F)cc(-c2cccnc2OC2CC2)cc1F` [Example 197, 5-[4-(2-cyclopropoxy-pyridin-3-yl)-2,6-difluoro-phenoxy]-pentanoic acid], for which the half-maximal effective concentration (EC50) was in the range of 0.2 to 2 µM.

For the compound `Cc1cnc(OC2CCCC2)c(-c2cc(F)c(SCCCC(=O)O)c(F)c2)c1` [Example 198, 4-[4-(2-cyclopentyloxy-5-methyl-pyridin-3-yl)-2,6-difluoro-phenylsulfanyl]-butyri c acid], the concentration for a half-maximal effect (EC50) is below 0.2 µM.

With `CC(CCC(=O)O)Sc1ccc(-c2cccnc2OC2CCCC2)cc1` (stereo not shown) [Example 199, 4-[4-(2-cyclopentyloxy-pyridin-3-yl)-phenylsulfanyl]-pentanoic acid], the EC50 was below 0.2 µM.

In the case of `CC(C)Oc1ncccc1-c1ccc(SC(C)CCC(=O)O)cc1` (stereo not shown) [Example 200, 4-[4-(2-isopropoxy-pyridin-3-yl)-phenylsulfanyl]-pentanoic acid], the EC50 lay within 0.2 to 2 µM.

With `CC(CCC(=O)O)Sc1c(F)cc(-c2cccnc2OC2CCCC2)cc1F` (stereo not shown) [Example 201, 4-[4-(2-cyclopentyloxy-pyridin-3-yl)-2,6-difluoro-phenylsulfanyl]-pentanoic acid], the EC50 was below 0.2 µM.

With `CC(CCC(=O)O)Sc1c(F)cc(-c2cccnc2SC2CCCC2)cc1F` (stereo not shown) [Example 202, 4-[4-(2-cyclopentylsulfanyl-pyridin-3-yl)-2,6-difluoro-phenylsulfanyl]-pentanoic acid], the EC50 was below 0.2 µM.

Consider `CN(C)CCOc1ncccc1-c1cc(F)c(OCCCC(=O)O)c(F)c1` [Example 203, 4-[4-[2-(2-dimethylaminoethyloxy)-3-pyridyl]-2,6-difluoro-phenoxy]butanoic acid], for which the concentration for a half-maximal effect (EC50) is above 20 µM.

With `CCCSc1ncccc1-c1cc(F)c(OCCCC(=O)O)c(F)c1` [Example 204, 4-[2,6-difluoro-4-(2-propylsulfanyl-pyridin-3-yl)-phenoxy]-butanoic acid], the concentration for a half-maximal effect (EC50) is below 0.2 µM.

Take `O=C(O)CCCOc1c(F)cc(-c2cccnc2SC2CC2)cc1F` [Example 205, 4-[4-(2-cyclopropylsulfanyl-pyridin-3-yl)-2,6-difluoro-phenoxy]-butanoic acid]: the concentration giving a half-maximal response (EC50) lay within 0.2 to 2 µM.

Turning to `CCSc1ncccc1-c1cc(F)c(OCCCC(=O)O)c(F)c1` [Example 206, 4-[4-(2-ethylsulfanyl-pyridin-3-yl)-2,6-difluoro-phenoxy]-butanoic acid], the EC50 is below 0.2 µM.

On to `CCCCSc1ncccc1-c1cc(F)c(OCCCC(=O)O)c(F)c1` [Example 207, 4-[4-(2-butylsulfanyl-pyridin-3-yl)-2,6-difluoro-phenoxy]-butanoic acid], for which the 50% effective concentration (EC50) is below 0.2 µM.

Take `O=C(O)CCCSc1ccc(-c2ccccc2NC2CCCC2)cc1` [Example 208, 4-(2′-cyclopentylamino-biphenyl-4-ylsulfanyl)-butyric acid]: the concentration giving a half-maximal response (EC50) was below 0.2 µM.

With `Cc1cnc(OC2CCCC2)c(-c2cc(F)c(OCCCC(=O)O)c(F)c2)c1` [Example 209, 4-[4-(2-cyclopentyloxy-5-methyl-pyridin-3-yl)-2,6-difluoro-phenoxy]-butyric acid], the concentration for a half-maximal effect (EC50) was below 0.2 µM.

For the compound `CC(C)Sc1cccc(-c2ccc(OCCCC(=O)O)cc2)n1` [Example 210, 4-[4-(6-isopropylsulfanyl-2-pyridyl)phenoxy]butanoic acid], the EC50 was below 0.2 µM.

`CN(C)C1CCN(c2cccc(-c3cc(F)c(OCCCC(=O)O)c(F)c3)n2)C1` (stereo not shown) [Example 212, 4-[4-[6-[3-(dimethylamino)pyrrolidin-1-yl]-2-pyridyl]-2,6-difluoro-phenoxy]butanoic acid]: the 50% effective concentration (EC50) is above 20 µM.
